Results reported in patent US11453703B2, “Heterotandem bicyclic peptide complexes” (BicycleTX Limited, priority 2018, dated 2022).
Like-named read-outs stand apart in the source and are kept apart here. Starred links: 1 amine or outer side, 2 acyl side, 3 side chain; linkers in the order of their positions; H or OH if unused. Positions of bridges follow the written chain, without caps; N, C: chain ends. Non-standard residues stand in square brackets, D forms with d. Chains are numbered I, II in the order given. X1 = O=C(CCc1cn(CCOCCOCCOCCOCCOCCOCCOCCOCCOCCOCCOCCOCCC(=O)[*:2])nn1)NCCC(=O)[*:1]; TATA = O=C(CC[*:1])N1CN(C(=O)CC[*:2])CN(C(=O)CC[*:3])C1; 1Nal = N[C@@H](Cc1cccc2ccccc12)C(=O)O; Hyp = O=C(O)[C@@H]1C[C@@H](O)CN1; hArg = N=C(N)NCCCC[C@H](N)C(=O)O; tBuAla = CC(C)(C)C[C@H](N)C(=O)O; Nle = CCCC[C@H](N)C(=O)O; Sar = CNCC(=O)O

Biological target: CD137 (Homo sapiens, UniProt Q07011)
Sequence (Q07011 24-255): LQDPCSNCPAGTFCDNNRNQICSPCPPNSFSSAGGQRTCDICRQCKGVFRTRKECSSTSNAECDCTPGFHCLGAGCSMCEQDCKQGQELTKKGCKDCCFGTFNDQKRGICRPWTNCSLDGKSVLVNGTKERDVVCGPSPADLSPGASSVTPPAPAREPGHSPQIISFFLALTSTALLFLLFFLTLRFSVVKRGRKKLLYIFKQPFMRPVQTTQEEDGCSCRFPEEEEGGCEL
Assay: CD137 reporter assay, co-culture with Nectin-4 tumour cells;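 further: jurkat reporter cells co-cultured with tumour cells and test article for 6 h, luminescence signal relative to Jurkat plus tumour cells lacking test article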
Format: cell-based
Design: host or cells: Jurkat reporter cells
[1] = tumour target Nectin4, co-culture with H1376, 6 h

| Fold Induction over Background [fold] | EC50 (tumour target Nectin4, co-culture with H1376, 6 h, read-out: EC50) [nM] | Compound | Fold Induction over Background [1] [fold] | EC50 [nM] |
| --- | --- | --- | --- | --- |
| – | – | CCCC[C@@H]1NC(=O)[C@H](Cc2ccc(O)cc2)NC(=O)[C@@H]2CCCN2C(=O)[C@H](CC(=O)O)NC(=O)[C@H](C)NC(=O)[C@H](Cc2ccccc2)NC(=O)[C@@H]2CSCCC(=O)N3CN(CN(C3)C(=O)CCSC[C@@H](C(=O)N[C@@H](CNC(=O)CCc3cn(CCOCCOCCOCCOCCOCCOCCOCCOCCOCCOCCOCCOCCC(=O)NCCC(=O)N(C)CC(=O)N(C)CC(=O)N(C)CC(=O)N(C)CC(=O)N(C)CC(=O)N(C)CC(=O)N(C)CC(=O)N(C)CC(=O)N(C)CC(=O)N(C)CC(=O)NCCCC[C@H]4NC(=O)[C@H](Cc5cccc6ccccc56)NC(=O)[C@@H]5CCCN5C(=O)[C@@H](NC(C)=O)CSCCC(=O)N5CN6CN(C5)C(=O)CCSC[C@H](NC4=O)C(=O)N[C@@H](CCSC)C(=O)N[C@@H](CCCCNC(=N)N)C(=O)N[C@@H](CC(=O)O)C(=O)N[C@@H](Cc4c[nH]c5ccccc45)C(=O)N[C@@H](CO)C(=O)N[C@@H]([C@@H](C)O)C(=O)N4CCC[C@H]4C(=O)N4C[C@H](O)C[C@H]4C(=O)N[C@@H](Cc4c[nH]c5ccccc45)C(=O)N[C@H](C(N)=O)CSCCC6=O)nn3)C(N)=O)NC1=O)C(=O)CCSC[C@H](NC(C)=O)C(=O)N[C@@H](CC(C)(C)C)C(=O)N1CCC[C@H]1C(=O)N[C@@H](CCC(=O)O)C(=O)N[C@H](C)C(=O)N1CCC[C@H]1C(=O)N[C@@H](Cc1ccc(O)cc1)C(=O)N2 [BCY10917] | 54 | – |
| – | – | CCCC[C@@H]1NC(=O)[C@H](Cc2ccc(O)cc2)NC(=O)[C@@H]2CCCN2C(=O)[C@H](CC(=O)O)NC(=O)[C@H](C)NC(=O)[C@H](Cc2ccccc2)NC(=O)[C@@H]2CSCCC(=O)N3CN(CN(C3)C(=O)CCSC[C@@H](C(=O)N[C@@H](CNC(=O)CCc3cn(CCOCCOCCOCCOCCOCCC(=O)NCCC(=O)N(C)CC(=O)N(C)CC(=O)N(C)CC(=O)N(C)CC(=O)N(C)CC(=O)N(C)CC(=O)N(C)CC(=O)N(C)CC(=O)N(C)CC(=O)N(C)CC(=O)NCCCC[C@H]4NC(=O)[C@H](Cc5cccc6ccccc56)NC(=O)[C@@H]5CCCN5C(=O)[C@@H](NC(C)=O)CSCCC(=O)N5CN6CN(C5)C(=O)CCSC[C@H](NC4=O)C(=O)N[C@@H](CCSC)C(=O)N[C@@H](CCCCNC(=N)N)C(=O)N[C@@H](CC(=O)O)C(=O)N[C@@H](Cc4c[nH]c5ccccc45)C(=O)N[C@@H](CO)C(=O)N[C@@H]([C@@H](C)O)C(=O)N4CCC[C@H]4C(=O)N4C[C@H](O)C[C@H]4C(=O)N[C@@H](Cc4c[nH]c5ccccc45)C(=O)N[C@H](C(N)=O)CSCCC6=O)nn3)C(N)=O)NC1=O)C(=O)CCSC[C@H](NC(C)=O)C(=O)N[C@@H](CC(C)(C)C)C(=O)N1CCC[C@H]1C(=O)N[C@@H](CCC(=O)O)C(=O)N[C@H](C)C(=O)N1CCC[C@H]1C(=O)N[C@@H](Cc1ccc(O)cc1)C(=O)N2 [BCY11020] | 47 | – |
| 74 | 0.16 | CCCC[C@@H]1NC(=O)[C@H](Cc2ccc(O)cc2)NC(=O)[C@@H]2CCCN2C(=O)[C@H](CC(=O)O)NC(=O)[C@H](C)NC(=O)[C@H](Cc2ccccc2)NC(=O)[C@@H]2CSCCC(=O)N3CN(CN(C3)C(=O)CCSC[C@@H](C(=O)N[C@@H](C)C(N)=O)NC1=O)C(=O)CCSC[C@H](NC(C)=O)C(=O)N[C@@H](CC(C)(C)C)C(=O)N1CCC[C@H]1C(=O)N[C@@H](CCCCNC(=O)CCc1cn(CC(=O)N[C@H]3CSCCC(=O)N4CN5CN(C4)C(=O)CCSC[C@H](NC(=O)[C@@H](CC(=O)O)NC(=O)[C@H](Cc4cccc6ccccc46)NC(=O)[C@@H]4CCCN4C3=O)C(=O)N[C@@H](CCSC)C(=O)N[C@@H](CCCCNC(=N)N)C(=O)N[C@@H](CC(=O)O)C(=O)N[C@@H](Cc3c[nH]c4ccccc34)C(=O)N[C@@H](CO)C(=O)N[C@@H]([C@@H](C)O)C(=O)N3CCC[C@H]3C(=O)N3C[C@H](O)C[C@H]3C(=O)N[C@@H](Cc3c[nH]c4ccccc34)C(=O)N[C@H](C(N)=O)CSCCC5=O)nn1)C(=O)N[C@H](C)C(=O)N1CCC[C@H]1C(=O)N[C@@H](Cc1ccc(O)cc1)C(=O)N2 [BCY11373] | – | – |
| – | – | CCCC[C@@H]1NC(=O)[C@H](Cc2ccc(O)cc2)NC(=O)[C@@H]2CCCN2C(=O)[C@H](CC(=O)O)NC(=O)[C@H](C)NC(=O)[C@H](Cc2ccccc2)NC(=O)[C@@H]2CSCCC(=O)N3CN(CN(C3)C(=O)CCSC[C@@H](C(=O)N[C@@H](C)C(N)=O)NC1=O)C(=O)CCSC[C@H](NC(C)=O)C(=O)N[C@@H](CC(C)(C)C)C(=O)N1CCC[C@H]1C(=O)N[C@@H](CCC(=O)O)C(=O)N[C@H](CCCCNC(=O)CCc1cn(CC(=O)N[C@H]3CSCCC(=O)N4CN5CN(C4)C(=O)CCSC[C@H](NC(=O)[C@@H](CC(=O)O)NC(=O)[C@H](Cc4cccc6ccccc46)NC(=O)[C@@H]4CCCN4C3=O)C(=O)N[C@@H](CCSC)C(=O)N[C@@H](CCCCNC(=N)N)C(=O)N[C@@H](CC(=O)O)C(=O)N[C@@H](Cc3c[nH]c4ccccc34)C(=O)N[C@@H](CO)C(=O)N[C@@H]([C@@H](C)O)C(=O)N3CCC[C@H]3C(=O)N3C[C@H](O)C[C@H]3C(=O)N[C@@H](Cc3c[nH]c4ccccc34)C(=O)N[C@H](C(N)=O)CSCCC5=O)nn1)C(=O)N1CCC[C@H]1C(=O)N[C@@H](Cc1ccc(O)cc1)C(=O)N2 [BCY11374] | 72 | 0.091 |
| – | – | CCCC[C@@H]1NC(=O)[C@H](Cc2ccc(O)cc2)NC(=O)[C@@H]2CCCN2C(=O)[C@H](CC(=O)O)NC(=O)[C@H](C)NC(=O)[C@H](Cc2ccccc2)NC(=O)[C@@H]2CSCCC(=O)N3CN(CN(C3)C(=O)CCSC[C@@H](C(=O)N[C@@H](CNC(=O)CCc3cn(CC(=O)N[C@H]4CSCCC(=O)N5CN6CN(C5)C(=O)CCSC[C@H](NC(=O)[C@@H](CC(=O)O)NC(=O)[C@H](Cc5cccc7ccccc57)NC(=O)[C@@H]5CCCN5C4=O)C(=O)N[C@@H](CCSC)C(=O)N[C@@H](CCCCNC(=N)N)C(=O)N[C@@H](CC(=O)O)C(=O)N[C@@H](Cc4c[nH]c5ccccc45)C(=O)N[C@@H](CO)C(=O)N[C@@H]([C@@H](C)O)C(=O)N4CCC[C@H]4C(=O)N4C[C@H](O)C[C@H]4C(=O)N[C@@H](Cc4c[nH]c5ccccc45)C(=O)N[C@H](C(N)=O)CSCCC6=O)nn3)C(N)=O)NC1=O)C(=O)CCSC[C@H](NC(C)=O)C(=O)N[C@@H](CC(C)(C)C)C(=O)N1CCC[C@H]1C(=O)N[C@@H](CCC(=O)O)C(=O)N[C@H](C)C(=O)N1CCC[C@H]1C(=O)N[C@@H](Cc1ccc(O)cc1)C(=O)N2 [BCY11375] | 72 | 0.23 |
| – | – | I: [Sar][Sar][Sar][Sar][Sar][Sar][Sar][Sar][Sar][Sar]CP[1Nal][dD]CM[hArg]DWSTP[Hyp]WC-NH2 / II: Ac-C[tBuAla]PE[dK]PYCFADPY[Nle]CA-NH2 (linker I:11-I:15-I:25, II:1-II:8-II:15 via TATA; linker I:N-II:5 via X1) [BCY10569] | 52 | 1.2 |
| – | – | I: [Sar][Sar][Sar][Sar][Sar][Sar][Sar][Sar][Sar][Sar]CP[1Nal][dD]CM[hArg]DWSTP[Hyp]WC-NH2 / II: Ac-C[tBuAla]PK[dA]PYCFADPY[Nle]CA-NH2 (linker I:11-I:15-I:25, II:1-II:8-II:15 via TATA; linker I:N-II:4 via X1) [BCY10567] | 45 | – |
